In paper PMC6135396, “Repurposing antimalarial aminoquinolines and related compounds for treatment of retinal neovascularization” (PLoS ONE, 2018):

What was measured:
[1] = system: human retinal microvascular endothelial cells (HRECs); test: In vitro HREC tube formation assay; assay type: cell-based; details: for Stimulation of HREC endothelial tube formation: factor added alone
Method: In vitro tube formation assays were carried out as previously described. Briefly, near confluent microvascular endothelial cells were pretreated with VEGF (100 ng/ml) for 2 h and then treated for 24 h with test compounds at serial concentrations, as indicated. Cells without VEGF treatment or with VEGF only were used as control. The cells were then detached and plated sparsely (2.5 ×10^4/well) on 24-well plates coated with 12.5% (v/v) Matrigel (BD, Franklin Lakes, NJ) and left overnight. The medium was then aspirated and 250 μl/well of 12.5% Matrigel was overlaid on the cells for 2 h to allow the polymerization of Matrigel, followed by addition of 500 μl/well of basal medium MCD131 with 10% fetal calf serum (FCS) for 24 h. The following day, the culture plates were observed under a phase contrast microscope and photographed at random in five fields (×10). The tubule length (mm/mm^2) per microscope field was quantified.

[2] = molecular target: T1, angiotensin II type 1 (AT1) (Homo sapiens, UniProt P30556); test: AT1 β-arrestin recruitment counter assay (CHO-K1-AT1); assay type: cell-based
T1 construct: β-galactosidase enzyme fragment (enzyme fragment complementation construct); host or cells: CHO-K1 (CHO-K1-AT1, PathHunter)
T1 sequence (P30556 1-359): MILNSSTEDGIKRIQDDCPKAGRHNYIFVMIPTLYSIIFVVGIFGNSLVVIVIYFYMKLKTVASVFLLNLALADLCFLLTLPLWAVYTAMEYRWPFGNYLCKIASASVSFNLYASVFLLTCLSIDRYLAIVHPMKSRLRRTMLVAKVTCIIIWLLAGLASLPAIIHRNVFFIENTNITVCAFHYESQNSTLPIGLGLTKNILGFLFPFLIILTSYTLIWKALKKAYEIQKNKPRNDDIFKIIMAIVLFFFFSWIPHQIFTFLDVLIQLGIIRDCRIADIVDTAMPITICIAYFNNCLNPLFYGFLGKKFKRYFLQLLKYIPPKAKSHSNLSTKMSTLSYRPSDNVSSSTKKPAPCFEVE
Method: (§1) PathHunter™ GPCR Arrestin and cAMP Hunter™ cell lines (DiscoveRx Corp., Fremont, CA) were used to assay G-protein-dependent signaling and β-arrestin recruitment to APJ. CHO-K1 cells stably expressing APJ (CHO-K1-APJ) or AT1 (CHO-K1-AT1) with β-arrestin/β-galactosidase enzyme fragment complementation constructs were maintained in HAM's F-12 medium (Hyclone, Logan, UT) supplemented with 10% FBS, 1X Penicillin-Streptomycin-Glutamine (Invitrogen; Carlsbad, CA), 300 μg/ml hygromycin (EMD Biosciences, San Diego, CA), and 800 μg/ml Geneticin (Cellgro, Manassas, VA). Primary Human Retinal Microvascular Endothelial Cells (HRECs) were purchased from Cell Systems (Kirkland, WA) and maintained in Complete Classic Medium with CultureBoost-R™ (Cell Systems). Parent CHO-K1 cells were obtained from ATCC and maintained in HAM’s F-12 medium supplemented with 10% FBS, and1X Penicillin-Streptomycin-Glutamine (Invitrogen; Carlsbad, CA). All cells were incubated at 37°C (5% CO2, 95% relative humidity) and maintained at less than 70% to 80% confluence (approximately 75,000 cells/cm^2). Cell heterologously expressing APJ or AT1 were not used after 10 passages. HRECs were not used in any experiments after five passages.
(§2) CHO-K1 cells engineered to over-express APJ or AT1, and β-arrestin were removed from flasks using TrypLE Select (1X), no phenol red (Life Technologies, Grand Island, NY), centrifuged, and resuspended in CP2 Reagent (DiscoveRx, Fremont, CA). Cells were counted using a Countess Automated Cell Counter (Invitrogen, Carlsbad, CA) and 5,000 cells/well were plated in a 384-well tissue culture treated microplate (Corning, Corning, NY). All plates were incubated overnight at 37°C, 5% CO2 in a final volume of 25 μl/well. Following incubation, 5 μl of peptides (10-point concentrations) and controls prepared in ligand buffer (1X HBSS, 10 mM HEPES, 0.1% BSA) were added to cells and incubated at 37°C for 1.5 h. Using a Multidrop Combi Reagent Dispenser (Thermo Scientific), 12 μl of Detection Reagent (DiscoveRx) comprised of substrate and co-factors was added to all wells and incubated at room temperature in the dark for 1 h. Chemiluminescent signal was detected on an EnVision Multi-label plate reader (Perkin Elmer) using a counting time of 1 s/well. The robustness of data from each screening plate and run was monitored by Z’ and Signal Window calculation.

parental CHO-K1 cells = test: Parental cAMP counter assay (cells lacking APJ); assay type: cell-based; details: Cricetulus griseus
Method: (§3) To identify small-molecule antagonists of the apelin receptor (APJ) we interrogated the SBP compound file of ~425,000 compounds using CHO-k1-AGTRL1 cells overexpressing human APJ and a competitive immunoassay of intracellular cAMP [59]. The compound file was screened at a concentration of 10 μM. For all 333 plates assayed, the average Z-factor = 0.68 and the average S/B = 8.2, indicating a robust assay performance. […] There were 2550 compounds that met this criterion, representing a hit rate of ~0.6%. […] Included in this hit set was a series of aminoquinolines, exemplified by compound 1 (Fig 1B). […] As part of an initial hit-validation strategy, these compounds and three other commercially available analogs were purchased for further testing. The purity and identify of all compounds were confirmed by NMR and LC-MS, and they were subsequently retested in a battery of cell-based assays of APJ function and counter screens. […] (Fig 1D).
as §1
(§4) All reagents unless otherwise specified are components of the cAMP HitHunter (DiscoveRx) kit. Ligand Buffer + 60 μM Forskolin (Cayman Chemical, Ann Arbor, MI) was made fresh on the day of the experiment and used for the dilution of positive and negative controls as well as all peptides. CHO-K1-APJ cells were dispensed into a 1536-well tissue culture microplate (Corning, Corning, NY) using a Multidrop at a seeding density of 1,000 cells/well and returned to the incubator. The next day, the cell culture media was removed and replaced with 15 μl/well of assay buffer (1X HBSS, 10 mM HEPES) containing anti-cAMP antibody (DiscoveRx). […] Plates were incubated at room temperature in the dark for 3 hours prior to chemiluminescence detection on an EnVision (Perkin Elmer) using a counting time of 1 s/well.

[3] = Cytotoxicity, ATP-Lite, Fa2N-4 immortalized human hepatocytes; assay type: cell-based; details: ATP-lite assay, Fa2-N4 cells
Method: (§5) Fa2N-4 immortalized human hepatocytes (Xenotech) or HREC cells were grown to subconfluency in wells of a 96-well plate and exposed to different concentrations of compounds for 24 h after which the cells were washed and the media and compounds replaced. The cells were returned to the incubator for another 24 h. The extent of cell death (cell lysis) was determined by ATP-Lite reagent (Perkin-Elmer).

APJ [4] = molecular target: T2, APJ (Homo sapiens, UniProt P35414); test: APJ cAMP assay (primary, cAMP HitHunter, CHO-K1-APJ cells); assay type: cell-based; parameters: host or cells: CHO-K1 (CHO-K1-APJ / CHO-k1-AGTRL1)
T2 sequence (P35414 1-380): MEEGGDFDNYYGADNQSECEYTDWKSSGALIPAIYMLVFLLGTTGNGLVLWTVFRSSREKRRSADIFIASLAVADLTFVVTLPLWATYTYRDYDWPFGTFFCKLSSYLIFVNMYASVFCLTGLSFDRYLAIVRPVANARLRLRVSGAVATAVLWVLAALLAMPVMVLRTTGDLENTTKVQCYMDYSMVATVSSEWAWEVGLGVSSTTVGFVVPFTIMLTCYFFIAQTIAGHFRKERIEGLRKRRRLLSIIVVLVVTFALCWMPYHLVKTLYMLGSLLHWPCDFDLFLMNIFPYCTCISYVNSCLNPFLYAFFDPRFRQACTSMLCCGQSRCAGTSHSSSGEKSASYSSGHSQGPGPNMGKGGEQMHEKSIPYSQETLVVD
Method: as §3, §1, §4

APJ [5] = molecular target: T2, APJ; test: APJ β-arrestin recruitment assay (PathHunter, CHO-K1-APJ); assay type: cell-based; parameters: β-galactosidase enzyme fragment (enzyme fragment complementation construct); host or cells: CHO-K1 (CHO-K1-APJ, PathHunter); details: for IC50: secondary assay, Ap13-mediated β-arrestin recruitment
Method: as §1, §2

HRECs [6] = test: Cytotoxicity, ATP-Lite, HRECs; assay type: cell-based; details: tested up to 100 μM
Method: as §5

HRECs [7] = details: VEGF 100 ng/mL, Ap13 10 nM
Method: The proliferation of HRECs was monitored by the crystal violet assay as described in our previous publication. […] After washing three times with PBS, the plates were air-dried and the remaining stain was dissolved in, 10% acetic acid and absorbance measured with a microplate reader at 540 nm.

HRECs [8] = details: VEGF 100 ng/mL, Ap13 10 nM; remark: listed apart in the source
Method: Migration was determined by the QCM™ chemotaxis 5 μm 96-well cell migration assay (Chemicon International, Inc.) as per the manufacture’s protocol. […] After 16 h, cells that migrated to the basal side of the chamber insert membrane were detached, lysed and detected using CyQuant GR™ dye. Migration is expressed as percent increase in migrated cells compared to untreated cells.

[9] = Fa2N-4 immortalized human hepatocytes

Row | Compound | IC50 [2] | IC50 (parental CHO-K1 cells) | IC50 (APJ [4]) | Antagonism of Ap13-mediated recruitment of β-arrestin (APJ [5]) | IC50 (APJ [5]) | also measured
1 | CSCC[C@H](NC(=O)[C@@H]1CCCN1C(=O)CNC(=O)[C@H](CCCCN)NC(=O)[C@H](Cc1c[nH]cn1)NC(=O)[C@H](CO)NC(=O)[C@H](CC(C)C)NC(=O)[C@H](CCCNC(=N)N)NC(=O)[C@@H]1CCCN1C(=O)[C@H](CCCNC(=N)N)NC(=O)[C@@H](N)CCC(N)=O)C(=O)N1CCC[C@H]1C(=O)N[C@@H](Cc1ccccc1)C(=O)O [Ap13, apelin-13] |  |  |  |  |  | Stimulation of HREC endothelial tube formation [1]: stimulated the formation of endothelial tubes
2 | NC(=O)c1ccc(Nc2ccnc3cc(Cl)ccc23)cc1 [Compound 1, 4-((7-chloroquinolin-4-yl)amino)benzamide] | > 40 µM | > 99 µM | 0.556 ± 0.105 µM | neither AQ nor 1, 3, 4, 5, or 6 antagonized | > 99 µM | IC50 at 48 h [3, 9]: > 50 µM
3 | O=C(OCC(O)CO)c1ccccc1Nc1ccnc2cc(Cl)ccc12 (stereo not drawn) [Compound 3, glafenine] | > 99 µM | > 99 µM | 1.15 ± 0.025 µM | neither AQ nor 1, 3, 4, 5, or 6 antagonized | > 99 µM | IC50 at 48 h [3, 9]: > 50 µM
4 | COc1ccc(Nc2ccnc3cc(Cl)ccc23)cc1 [Compound 4, 7-chloro-N-(4-methoxyphenyl)quinolin-4-amine] | > 40 µM | > 99 µM | 1.42 ± 0.038 µM | neither AQ nor 1, 3, 4, 5, or 6 antagonized | > 40 µM | IC50 at 48 h [3]: > 50 µM
5 | O=C(O)c1ccccc1Nc1ccnc2cc(Cl)ccc12 [Compound 5, 2-((7-chloroquinolin-4-yl)amino)benzoic acid] | > 40 µM | > 99 µM | 0.937 ± 0.084 µM | neither AQ nor 1, 3, 4, 5, or 6 antagonized | > 40 µM | 
6 | O=C(c1ccccc1Nc1ccnc2cc(Cl)ccc12)N1CCOCC1 [Compound 6, (2-((7-chloroquinolin-4-yl)amino)phenyl)(morpholino) methanone] | > 40 µM | > 99 µM | 23.5 ± 0.161 µM | neither AQ nor 1, 3, 4, 5, or 6 antagonized | > 99 µM | 
7 | CCNCc1cc(Nc2ccnc3cc(Cl)ccc23)ccc1O [DEAQ, desethylamodiaquine] |  |  |  |  |  | APJ antagonism in the APJ cAMP assay (APJ [4]): effective APJ antagonist equipotent to the parent AQ
8 | O=C(Oc1coc(CSc2ncccn2)cc1=O)c1ccc([N+](=O)[O-])cc1 [ML221, 4-oxo-6-((pyrimidin-2-ylthio)methyl)-4H-pyran-3-yl 4-nitrobenzoate] |  |  |  |  |  | Cytotoxicity to HRECs (HRECs [6]): Neither ML221 nor AQ were significantly toxic; Effect on Ap13-dependent increase in HREC tube formation ([1]; Ap13-induced, concentration-dependent): blocked Ap13-dependent increases in tube formation; Effect on VEGF-induced HREC tube formation ([1]; VEGF 100 ng/mL, absence of exogenous Ap13): A similar effect was observed
9 | VEGF |  |  |  |  |  | Stimulation of HREC endothelial tube formation [1]: stimulated the formation of endothelial tubes; Effect on HREC proliferation (HRECs [7]): stimulated HREC proliferation and migration; Effect on HREC migration (HRECs [8]): stimulated HREC proliferation and migration
